In patent US20100184678A1, “USE OF A PEPTIDE AS A THERAPEUTIC AGENT” (priority 2007, published 2010):
Where no end group is shown, it is not given here.

How the values were obtained:
HCMV strain AD169 = test: HCMV plaque formation assay in MRC-5 cells; type: cell-based; settings: for inhibition of HCMV plaque formation as compared to the virus control experiment: 10 micrograms per ml, MRC-5 cells, 7-10 days
Text: Ganciclovir was used as positive control.

HIV-1IIIB = test: HIV-1 antiviral assay in CEM-SS cells (MTS readout); settings: HIV-1IIIB in CEM-SS cells
A549 cells [1] = test: Apoptosis prevention assay (C2 ceramide, Annexin-5); type: cell-based, human; settings: 10 micrograms per ml, 30 min pretreatment, then C2 ceramide
Method: Human A549 cells (carcinomic human alveolar basal epithelial cells) were utilized in the experiments employing the Annexin-5 apoptosis assay. […] A549 cells were pretreated for 30 min with test peptides—10 micrograms per ml—followed by the exposure to C2 ceramide.

murine spleen cells = test: Th1/Th2 cytokine profiling assay (Ovalbumin-restimulated spleen cells); type: cell-based, Balb/c mice; settings: 10 micrograms per ml, 72 hours; for production of IFN-gamma (decreased by %) / production of IL-4 (decreased by %) / production of IL-5 (decreased by %): number = decrease; for production of TNF-alpha (induced by %): number = increase
HUVEC = test: Endothelial tube formation assay; type: cell-based, human; settings: 10 micrograms per ml; 20 hours
Text: Positive control was vehicle only. […] Raw data were expressed as average tubule lenghs in pixels±standard deviation.

[2] = test system: hepatitis B virus (HBV) ayw strain; test: HBV assay in HepG2-2.2.15 cells (secreted HBV DNA, TaqMan PCR); type: cell-based; settings: 10 micrograms per ml, HepG2-2.2.15, six days
[3] = test system: Primary Human endothelial cells (HUVEC); test: Endothelial cell migration assay; type: cell-based; settings: 10 micrograms per ml; 22 hours
Method: Thereafter, designated concentration of testing peptides—10 micrograms per ml—was added in duplicate wells.

A549 cells [4] = test: Apoptosis induction assay (Annexin-5); type: cell-based, human; settings: 10 micrograms per ml; 24 hours
Method: Human A549 cells (carcinomic human alveolar basal epithelial cells) were utilized in the experiments employing the Annexin-5 apoptosis assay. […] Test peptides—10 micrograms per ml—were exposed for 24 hours to the A549 cells before they were analyzed for signs of apoptosis.

Compound	antiviral activity of positive control compound (HCMV strain AD169; HCMV in MRC-5 cells)	antiviral activity of positive control compounds (HIV-1IIIB)	prevention of apoptosis on ceramide-induced apoptosis (A549 cells [1]; protection) [%]	production of IL-2 (change) (murine spleen cells)	production of IFN-gamma (decreased by %) (murine spleen cells)	production of IL-4 (decreased by %) (murine spleen cells)	production of IL-5 (decreased by %) (murine spleen cells)	production of TNF-alpha (induced by %) (murine spleen cells)	inhibition of the tube formation of human endothelial cells (HUVEC)	inhibition of HBV replication as compared to the virus control infection [2] [%]	inhibition of the migration of human endothelial cells [3]	induction of apoptosis on human lung cells (A549 cells [4])	inhibition of HCMV plaque formation as compared to the virus control experiment (HCMV strain AD169)	induction of apoptosis on ceramide-induced apoptosis (A549 cells [1]; increase of apoptosis) [%]
Nc1nc(O)c2ncn(COC(CO)CO)c2n1 [Ganciclovir, reference compound]	expected levels of antiviral activity													
CC(C)(C)NC(=O)[C@@H]1CN(Cc2cccnc2)CCN1C[C@@H](O)C[C@@H](Cc1ccccc1)C(=O)N[C@H]1c2ccccc2C[C@H]1O [indinavir]		expected levels of antiviral activity												
Cc1cn([C@H]2C[C@H](N=[N+]=[N-])[C@@H](CO)O2)c(=O)[nH]c1=O [AZT]		expected levels of antiviral activity												
His-Ser-Asp-Gly-Ile-Phe-Thr-Asp-Ser-Tyr-Ser-Arg-Tyr-Arg-Lys-Gln-Met-Ala-Val-Lys-Lys-Tyr-Leu-Ala-Ala-Val-Leu-NH2 (HSDGIFTDSYSRYRKQMAVKKYLAAVL-NH2) [Peptide 2]			13.7	did not significantly change	62.9%	did not significantly change	43.3%	did not significantly change	did not inhibit	39.1	did not inhibit	3.6%	did not inhibit	
His-Pro-Leu-Gln-Lys-Thr-Tyr-OH (HPLQKTY-OH) [Peptide 1]				did not significantly change	did not significantly change	30.9%	did not significantly change	31.3%	6%	25.3	4%	did not show any significant induction	0.3%	9.7
